Our source for the IC50 and Activity values is ChEMBL document CHEMBL1146246, “Synthesis and structure-activity relationship of novel RXR antagonists: orally active anti-diabetic and anti-obesity agents” (Bioorg Med Chem Lett, 2007).

pIC50: −log10 of the molar value. Active and inactive are the calls of the source. No cut-off for these calls is given here.

The target of series [1] is T1, Retinoic acid receptor RXR-alpha (Homo sapiens, UniProt P19793).
T1 sequence (P19793 whole entry): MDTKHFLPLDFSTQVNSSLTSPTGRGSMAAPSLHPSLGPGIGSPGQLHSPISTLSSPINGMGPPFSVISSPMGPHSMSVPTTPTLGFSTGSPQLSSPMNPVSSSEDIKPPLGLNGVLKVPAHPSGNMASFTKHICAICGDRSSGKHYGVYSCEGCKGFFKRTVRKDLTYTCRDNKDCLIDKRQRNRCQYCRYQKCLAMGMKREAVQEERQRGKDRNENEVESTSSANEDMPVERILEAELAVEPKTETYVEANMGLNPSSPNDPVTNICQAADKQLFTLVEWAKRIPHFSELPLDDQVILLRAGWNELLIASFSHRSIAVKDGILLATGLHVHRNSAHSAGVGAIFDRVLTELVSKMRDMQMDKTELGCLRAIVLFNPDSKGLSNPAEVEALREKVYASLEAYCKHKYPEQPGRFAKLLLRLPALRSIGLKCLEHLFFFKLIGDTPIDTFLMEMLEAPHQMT
The series is described as follows: Inhibition of LG-100268-induced RXRalpha transactivation.

In series [2] the target is T1, Retinoic acid receptor RXR-alpha. Kind of series: Inhibition of 9-cis-retinoic acid-induced RXRalpha transactivation.
For series [3], the species on record is Mus musculus. The series is described as follows: Decrease in plasma insulin concentration in obese/diabetic KKAy mouse. Type of series: ADME, organism-based.
The species named for series [4] is Mus musculus. Kind of series: Decrease in body weight gain in obese/diabetic KKAy mouse. Type of series: functional, organism-based.
For series [5], the species on record is Mus musculus. Kind of series: Decrease in plasma glucose concentration in obese/diabetic KKAy mouse. It counts as ADME, organism-based.

What is called pIC50 is the IC50 on a negative log10 scale, so that one unit is a factor of ten. Low readings indicate a large IC50, high ones a small IC50.

`CN1c2ccc(S(=O)(=O)N(C)C)cc2N=C(c2ccc(C(=O)O)cc2)c2cc3c(cc21)C(C)(C)CCC3(C)C`: the pIC50 in series [1] was 5.66; in series [2], 5.70.

Take `CC(=O)c1ccc2c(c1)N=C(c1ccc(C(=O)O)cc1)c1cc3c(cc1N2C)C(C)(C)CCC3(C)C`: the pIC50 in series [1] was 5.96; in series [2] it was 6.05.

Take `CN1c2ccc(C#N)cc2N=C(c2ccc(C(=O)O)c(F)c2)c2cc3c(cc21)C(C)(C)CCC3(C)C`: the results for the pIC50 in series [1] and in series [2] were 5.92 and 6.28, respectively.

In the case of `CN1c2ccc(S(=O)(=O)c3ccc(OC(F)(F)F)cc3)cc2N=C(c2ccc(C(=O)O)cc2)c2cc3c(cc21)C(C)(C)CCC3(C)C`, the pIC50 is 6.62 in series [1] and 6.89 in series [2].

Turning to `CSc1ccc2c(c1)N=C(c1ccc(C(=O)O)cc1)c1cc3c(cc1N2C)C(C)(C)CCC3(C)C`, the pIC50 in series [1] was 5.52; in series [2], 5.70.

Take `CCCCNS(=O)(=O)c1ccc2c(c1)N=C(c1ccc(C(=O)O)cc1)c1cc3c(cc1N2C)C(C)(C)CCC3(C)C`: the pIC50 in series [1] was 6.39; in series [2] it was 6.72.

For `CCN1c2ccc(C#N)cc2N=C(c2ccc(C(=O)O)cc2F)c2cc3c(cc21)C(C)(C)CCC3(C)C`, the pIC50 is 5.96 in series [1] and 6.28 in series [2].

With `COc1ccc(Sc2ccc3c(c2)N=C(c2ccc(C(=O)O)cc2)c2cc4c(cc2N3C)C(C)(C)CCC4(C)C)cc1`, the results for the pIC50 in series [1] and in series [2] were 5.80 and 6.14, respectively.

Take `CC(=O)c1ccc2c(c1)N=C(c1ccc(C(=O)O)c(F)c1)c1cc3c(cc1N2C)C(C)(C)CCC3(C)C`: the figures for the pIC50 in series [1] and in series [2] were 5.77 and 5.96, respectively.

Consider `CNS(=O)(=O)c1ccc2c(c1)N=C(c1ccc(C(=O)O)cc1)c1cc3c(cc1N2C)C(C)(C)CCC3(C)C`, for which the pIC50 in series [1] and in series [2] was 5.89 throughout.

On to `CC(=O)c1ccc2c(c1)N=C(c1ccc(C(=O)O)cc1F)c1cc3c(cc1N2C)C(C)(C)CCC3(C)C`, for which the pIC50 in series [1] is 5.34.

Turning to `CN1CCN(S(=O)(=O)c2ccc3c(c2)N=C(c2ccc(C(=O)O)cc2)c2cc4c(cc2N3C)C(C)(C)CCC4(C)C)CC1`, the pIC50 in series [1] is 5.72; in series [2], 6.00.

In the case of `COc1ccc(CS(=O)(=O)c2ccc3c(c2)N=C(c2ccc(C(=O)O)cc2)c2cc4c(cc2N3C)C(C)(C)CCC4(C)C)cc1`, the negative-log IC50 (pIC50) was 5.85 in series [1] and 6.11 in series [2].

Regarding `CN1CCN(c2ccc3c(c2)N=C(c2ccc(C(=O)O)cc2)c2cc4c(cc2N3C)C(C)(C)CCC4(C)C)CC1`, the pIC50 in series [1] was 4.96.

In the case of `CCCS(=O)(=O)c1ccc2c(c1)N=C(c1ccc(C(=O)O)cc1)c1cc3c(cc1N2C)C(C)(C)CCC3(C)C`, the pIC50 in series [1] is 6.04; in series [2], 6.35.

Take `CN1c2ccc(S(=O)(=O)Nc3ccc(OC(F)(F)F)cc3)cc2N=C(c2ccc(C(=O)O)cc2)c2cc3c(cc21)C(C)(C)CCC3(C)C`: the results for the pIC50 in series [1] and in series [2] were 6.02 and 6.34, respectively.

`CN1c2ccc(Sc3ccc(OC(F)(F)F)cc3)cc2N=C(c2ccc(C(=O)O)cc2)c2cc3c(cc21)C(C)(C)CCC3(C)C`: the pIC50 in series [1] is 6.00; in series [2], 6.41.

In the case of `COc1ccc(S(=O)(=O)c2ccc3c(c2)N=C(c2ccc(C(=O)O)cc2)c2cc4c(cc2N3C)C(C)(C)CCC4(C)C)cc1`, the results for the pIC50 in series [1] and in series [2] were 6.44 and 6.77, respectively.

As to `CN1c2ccc(S(=O)(=O)Cc3ccc(Cl)cc3)cc2N=C(c2ccc(C(=O)O)cc2)c2cc3c(cc21)C(C)(C)CCC3(C)C`, the pIC50 is 6.02 in series [1] and 6.38 in series [2].

For the molecule `CCN1c2ccc(C(C)=O)cc2N=C(c2ccc(C(=O)O)cc2)c2cc3c(cc21)C(C)(C)CCC3(C)C`, the figures for the negative-log IC50 (pIC50) in series [1] and in series [2] were 6.01 and 6.10, respectively.

For `COc1ccc(CSc2ccc3c(c2)N=C(c2ccc(C(=O)O)cc2)c2cc4c(cc2N3C)C(C)(C)CCC4(C)C)cc1`, the pIC50 in series [1] was 5.31; in series [2] it was 5.26.

Take `CN1c2ccc(S(=O)(=O)N3CCOCC3)cc2N=C(c2ccc(C(=O)O)cc2)c2cc3c(cc21)C(C)(C)CCC3(C)C`: the negative logarithm of the IC50 (pIC50) in series [1] was 6.00; in series [2], 6.35.

`CCN1c2ccc(C#N)cc2N=C(c2ccc(C(=O)O)c(F)c2)c2cc3c(cc21)C(C)(C)CCC3(C)C`: the outcome in the series listed under Mus musculus [3] and in the series filed under Mus musculus [5] was Active. The outcome in the series listed under Mus musculus [4] was Active. In addition, the results for the pIC50 in series [1] and in series [2] were 6.11 and 6.30, respectively.

Consider `CN1c2ccc(N3CCOCC3)cc2N=C(c2ccc(C(=O)O)cc2)c2cc3c(cc21)C(C)(C)CCC3(C)C`, for which the pIC50 in series [1] was 5.15; in series [2] it was 5.41.

Turning to `CCN1c2ccc(C(C)=O)cc2N=C(c2ccc(C(=O)O)cc2F)c2cc3c(cc21)C(C)(C)CCC3(C)C`, the pIC50 in series [1] is 5.48; in series [2], 5.52.

As for `CN1c2ccc(C#N)cc2N=C(c2ccc(C(=O)O)cc2)c2cc3c(cc21)C(C)(C)CCC3(C)C`, the pIC50 was 6.09 in series [1] and 6.37 in series [2].

`CN1c2ccc(S(=O)(=O)N3CCCC3)cc2N=C(c2ccc(C(=O)O)cc2)c2cc3c(cc21)C(C)(C)CCC3(C)C`: the pIC50 in series [1] was 6.00; in series [2] it was 6.35.

Regarding `CN1c2ccc(S(C)(=O)=O)cc2N=C(c2ccc(C(=O)O)cc2)c2cc3c(cc21)C(C)(C)CCC3(C)C`, the pIC50 was 5.77 in series [1] and 5.85 in series [2].

Turning to `CCCN1c2ccc(C#N)cc2N=C(c2ccc(C(=O)O)cc2)c2cc3c(cc21)C(C)(C)CCC3(C)C`, the pIC50 in series [1] and in series [2] was 5.68 each time.

Turning to `CN1c2ccc(SCc3ccc(Cl)cc3)cc2N=C(c2ccc(C(=O)O)cc2)c2cc3c(cc21)C(C)(C)CCC3(C)C`, the pIC50 in series [1] was 5.80; in series [2], 6.17.

For `CCN1c2ccc(C#N)cc2N=C(c2ccc(C(=O)O)cc2)c2cc3c(cc21)C(C)(C)CCC3(C)C`, the results for the pIC50 in series [1] and in series [2] were 6.32 and 6.49, respectively.
